Among the data in US8951985B2, “Compounds and pharmaceutical compositions for the treatment of viral infections” (Idenix Pharmaceuticals, Inc., priority 2011, dated 2015) are EC50 and CC50 values, retold here.

Read-outs that look alike come from different tables or passages of the source. Where only a bound is given, the exact number is not on record here.

For one series, the system named is HCV genotype 1b replicon. As to the kind of experiment: HCV replicon assay (HCV-REPL LUC), luciferase reporter. Format: cell-based, hepatitis C virus. As to the method:
Huh-7-derived cell line (Zluc) that harbors an HCV genotype 1b replicon and a luciferase reporter gene was grown in Dulbecco's Modified Eagle Medium (DMEM) supplemented with 10% fetal bovine serum, 2 mM GlutaMAX, 1% MEM nonessential amino acids, 100 IU/mL penicillin, 100 μg/mL streptomycin, and 0.5 mg/mL Geneticin® (G418). For dose response testing the cells were seeded in 96-well plates at 7.5×10^3 cells per well in a volume of 50 μl, and incubated at 37° C./5% CO2. Drug solutions were made up freshly in Huh-7 media as 2× stocks. Ten additional 5-fold dilutions were prepared from these stocks in DMEM without G418. At least three hours after Zluc cells were seeded, drug treatment was initiated by adding 50 μL of drug dilutions to the plates in duplicate. […] Cells were then incubated at 37° C./5% CO2. Alternatively compounds were tested at two concentrations (10 nM and 100 nM). […] After 72 hours of incubation, the inhibition of HCV replication was measured by quantification of photons emitted after mono-oxygenation of 5′-fluoroluciferin to oxyfluoroluciferin by firefly luciferase. For this, media was removed from the plates via gentle tapping. Fifty microliters of ONE-glo luciferase assay reagent was added to each well. The plates were shaken gently for 3 min at room temperature and luminescence was measured on a Victor^3 V 1420 multilabel counter (Perkin Elmer) with a 1 second read time using a 700 nm cut-off filter. The EC50 values were calculated from dose response curves from the resulting best-fit equations determined by Microsoft Excel and XLfit 4.1 software.
Compounds presented in the table below were assayed according to the replicon assay described above.
For orientation: A replicon is a self-replicating genome or part of one, used to study replication in cells.

Series [1] is described as follows: Cytotoxicity evaluation, CellTiter-Blue Cell Viability Assay. The format is cell-based. The settings on record: human, Zluc cells (Huh-7-derived HCV replicon cell line). As to the method: (§1) For cytotoxicity evaluation, Zluc cells were treated with compound as described above, and cell viability was monitored using the CellTiter-Blue Cell Viability Assay (Promega) by adding 20 μL of the assay solution to each well. The plates were then incubated at 37° C./5% CO2 for at least 3 hours. Fluorescence was detected in plates using excitation and emission wavelengths of 560 and 590 nm, respectively, in a Victor^3 V 1420 multilabel counter (Perkin Elmer) and CC50 values were determined using Microsoft Excel and XLfit 4.1 software.
A general note: Alamar Blue is a resazurin reagent that responds to reducing activity.

Series [2] concerns Zluc cells (Huh-7-derived cell line). Described as above. The format is cell-based. To be noted: read-out: HCV Replicon CC50. As to the method: as §1
The mark [3] stands for this setting: Hepatitis C virus, Huh-7, 72 h, read-out: HCV Replicon EC50, Zluc cells (Huh-7, HCV genotype 1b replicon, luciferase), 72 hours incubation.

Broadly, the EC50 is the concentration giving half of the maximal effect. The term CC50 denotes the concentration that lowers cell viability or growth by half. For `CCOC(=O)[C@H](Cc1ccccc1)NP(=O)(OCC(=O)OC(C)C)OC[C@H]1O[C@@H](n2cnc3c(OC)nc(N)nc32)[C@](C)(O)[C@@H]1O` (mixture of isomers) [Compound 2], the EC50 in the series with HCV genotype 1b replicon (setting [3]) lay within 500 to 1000 nM. The CC50 in series [1] was at least 100 µM.

Regarding `CCOC(=O)[C@@H](NP(=O)(OCCC(=O)OC(C)(C)C)OC[C@H]1O[C@@H](n2cnc3c(OC)nc(N)nc32)[C@](C)(O)[C@@H]1O)C(C)C` (mixture of isomers) [Compound 6], in the series with HCV genotype 1b replicon (setting [3]), the EC50 fell in the range of 1000 to 5000 nM. Also, in series [1], the CC50 is at least 100 µM.

For the molecule `CCOC(=O)COP(=O)(N[C@H](C(=O)OC)C(C)C)OC[C@H]1O[C@@H](n2cnc3c(OCC)nc(N)nc32)[C@](C)(O)[C@@H]1O` (mixture of isomers) [Compound 7], in the series on HCV genotype 1b replicon (setting [3]), the EC50 lay in the range of 1000 to 5000 nM. The same molecule showed a CC50 in series [1] of at least 100 µM.

Turning to `CCOC(=O)COP(=O)(N[C@@H](CCSC)C(=O)OCC)OC[C@H]1O[C@@H](n2cnc3c(OC)nc(N)nc32)[C@](C)(O)[C@@H]1O` (mixture of isomers) [Compound 9], the EC50 in the series with HCV genotype 1b replicon (setting [3]) is 1000 to 5000 nM. The same molecule had a CC50 in series [1] of at least 100 µM.

Regarding `COc1nc(N)nc2c1ncn2[C@@H]1O[C@H](COP(=O)(N[C@@H](CC(C)C)C(=O)OC(C)C)OCC(=O)NCc2ccc(F)cc2)[C@@H](O)[C@@]1(C)O` (mixture of isomers) [Compound 10], the EC50 with HCV genotype 1b replicon (setting [3]) lay within 1000 to 5000 nM. Moreover, the CC50 in series [1] is at least 100 µM.

As for `CCOC(=O)COP(=O)(N[C@@H](CC(C)C)C(=O)OC(C)C)OC[C@H]1O[C@@H](n2cnc3c(OC)nc(N)nc32)[C@](C)(F)[C@@H]1O` (mixture of isomers) [Compound 12], the EC50 in the series with HCV genotype 1b replicon (setting [3]) fell in the range of 500 to 1000 nM. For the same molecule, the CC50 in series [1] is at least 100 µM.

Regarding `CCOC(=O)COP(=O)(N[C@@H](CC(C)C)C(=O)OC(C)C)OC[C@H]1O[C@@H](n2cnc3c(OC)nc(N)nc32)[C@](C)(O)[C@@H]1O` (single isomer, unassigned) [Compound 11a], the EC50 in the series on HCV genotype 1b replicon (setting [3]) lay within 1000 to 5000 nM. The molecule further displayed a CC50 in series [1] of at least 100 µM.

Consider `CCOC(=O)COP(=O)(N[C@@H](CC(C)C)C(=O)OC(C)C)OC[C@H]1O[C@@H](n2cnc3c(OC)nc(N)nc32)[C@](C)(O)[C@@H]1O` (single isomer, unassigned) [Compound 11b], for which the EC50 with HCV genotype 1b replicon (read-out: HCV Replicon EC50, Zluc cells (Huh-7, HCV genotype 1b replicon, luciferase), 72 hours incubation) was under 500 nM. For the same molecule, in series [2], the CC50 lay within 50 to 99 µM.

Take `COc1nc(N)nc2c1ncn2[C@@H]1O[C@H](COP(=O)(N[C@@H](C)C(=O)OC(C)C)OCC(=O)OC(C)C)[C@@H](O)[C@@]1(C)O` (stereo partly shown) [Compound 1]: in the series on HCV genotype 1b replicon (setting [3]), the EC50 fell in the range of 1000 to 5000 nM. The CC50 in series [1] was at least 100 µM.

Take `CCOC(=O)COP(=O)(N[C@H](Cc1ccccc1)C(=O)OC(C)C)OC[C@H]1O[C@@H](n2cnc3c(OC)nc(N)nc32)[C@](C)(O)[C@@H]1O` (stereo partly shown) [Compound 3]: the EC50 in the series on HCV genotype 1b replicon (setting [3]) fell in the range of 5000 to 10000 nM. The same molecule came in with a half-maximal cytotoxic concentration (CC50) in series [1] of at least 100 µM.

For `COc1nc(N)nc2c1ncn2[C@@H]1O[C@H](COP(=O)(N[C@@H](CC(C)C)C(=O)OC(C)C)OC(C)C(=O)OCc2ccccc2)[C@@H](O)[C@@]1(C)O` (stereo partly shown) [Compound 4], in the series with HCV genotype 1b replicon (setting [3]), the EC50 lay within 500 to 1000 nM. This molecule also came in with a CC50 in series [1] of 50 to 99 µM.

Take `COc1nc(N)nc2c1ncn2[C@@H]1O[C@H](COP(=O)(N[C@@H](CC(C)C)C(=O)OC(C)C)OCCCC(=O)NCc2ccc(F)cc2)[C@@H](O)[C@@]1(C)O` (stereo partly shown) [Compound 5]: the EC50 in the series with HCV genotype 1b replicon (setting [3]) is 5000 to 10000 nM. Also, the CC50 in series [1] was at least 100 µM.

With `CCOC(=O)COP(=O)(NC(C(=O)OCC)c1ccccc1)OC[C@H]1O[C@@H](n2cnc3c(OC)nc(N)nc32)[C@](C)(O)[C@@H]1O` (stereo partly shown) [Compound 8], in the series on HCV genotype 1b replicon (setting [3]), the EC50 lay within 5000 to 10000 nM. For the same molecule, the CC50 in series [1] is at least 100 µM.

On to `CCOC(=O)COP(=O)(N[C@@H](CC(C)C)C(=O)OC(C)C)OC[C@H]1O[C@@H](n2cnc3c(OC)nc(N)nc32)[C@](C)(O)[C@@H]1O` (stereo partly shown) [Compound 11], for which the EC50 in the series on HCV genotype 1b replicon (setting [3]) is under 500 nM. This molecule came in with a CC50 in series [1] of at least 100 µM.
